# pKi: −log10 of the molar value.
# Molecular target: T1, Purine nucleoside phosphorylase (Homo sapiens, UniProt P00491)
# T1 sequence (P00491 whole entry): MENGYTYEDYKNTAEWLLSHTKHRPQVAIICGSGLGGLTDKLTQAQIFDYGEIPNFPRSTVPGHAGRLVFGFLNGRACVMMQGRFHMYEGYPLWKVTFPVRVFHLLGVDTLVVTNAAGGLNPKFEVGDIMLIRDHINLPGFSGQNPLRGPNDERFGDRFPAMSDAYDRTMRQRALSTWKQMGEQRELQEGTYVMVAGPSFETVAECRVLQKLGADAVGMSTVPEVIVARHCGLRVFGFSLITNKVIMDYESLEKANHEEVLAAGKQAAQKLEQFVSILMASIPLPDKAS
# Description: Inhibition of human PNP by xanthine-oxidase coupled assay
row,SMILES,pKi
1,Nc1nc2c(CNC(CO)CO)c[nH]c2c(=O)[nH]1,11.68
2,Nc1nc2c(CN[C@H](CO)[C@H](O)CO)c[nH]c2c(=O)[nH]1,11.47
3,O=c1[nH]cnc2c(CN3C[C@H](CO)[C@@H](O)C3)c[nH]c12 [ULODESINE],11.07
